Measured values: patent publication US20220047527A1, “FOOD-AND-DRINK COMPOSITION CONTAINING ASTAXANTHIN” (AstaReal Co., Ltd., priority 2016, published 2022)
Like-named read-outs stand apart in the source and are kept apart here.

Columns and labels:
[1] = tested on: salivary cortisol; assay: Measurement of salivary cortisol (CLIA); assay type: in vivo, human; details: for salivary cortisol concentration: after 8-week ingestion
From the text: Salivary cortisol, which was examined as a biochemical index for a mental load, is used as a stress marker because of simplicity of measurement due to the high correlation with blood cortisol, and known to be increased by an acute mental stress, for example, caused at making a speech in front of others or doing mental calculation or by continuous, high-intensity exercise. Because the salivary cortisol concentration is known to show circadian variation, being high in the morning and then declining as the night approaches, mental load application (calculation load; Uchida-Kraepelin test) was performed in the morning in this study. Salivary secretory immunoglobulin A (sIgA) is an antibody produced by B cells that inhibits the proliferation of pathogens on the mucosa of the oral cavity, airway, intestines, and other organs. It is known that reduction of sIgA in saliva is associated with the development of upper respiratory tract infection and that salivary sIgA concentration decreases under chronic stress and increases in a relaxed state.
Prior to saliva sampling, the subjects were instructed to brush their teeth and place a cotton swab (Salivette) in the mouth for 2 minutes without chewing to thoroughly soak the cotton swab with saliva. Saliva samples were collected twice, in the morning of the day of assessment (before load application) and after mental load application (calculation load; Uchida-Kraepelin test). Salivary cortisol concentration was measured with a competitive chemiluminescent immunoassay (CLIA) kit (Chemilumi ACS-E Cortisol II; Siemens Healthcare Diagnostics Inc.).

[2] = tested on: human having a sense of fatigue; assay: Cycling task on a bicycle ergometer, task performance with a physical load; assay type: in vivo; details: between the groups (FIG. 19)
Procedure: A physical load was applied by a cycling task on a bicycle ergometer. Specifically, the subjects were instructed to pedal for 30 min with a rotation rate of the pedal adjusted to maintain the heart rate at 120 to 130 HR for men and 110 to 120 HR for women. The magnitude of the load was set at a constant level of 80 W for men and 70 W for women. The distance cycled (km) in 30 min was measured, which was used as the task performance with a physical load.

[3] = Study 2: temporal change of human blood (plasma) astaxanthin level on long-term ingestion; assay type: in vivo
Procedure: This study is a study in humans to confirm how the blood (plasma) astaxanthin level changes through long-term ingestion of astaxanthin. While the blood (serum) astaxanthin level was measured at the completion of ingestion (after 12-week ingestion) in Study 1, Study 2 is, specifically, a study in humans to confirm how the blood (plasma) astaxanthin level behaves in the case that the period of ingestion is shorter than 12 weeks.
Ten healthy Japanese men and women at age of 20 years or older and younger than 50 years
Each subject ingested two capsules per day, each capsule containing 60 mg (6 mg in terms of the free form of astaxanthin) of Haematococcus algae extract and 270 mg of edible fat and oil, with water 30 minutes after breakfast (12 mg/day in terms of the free form of astaxanthin) for 42 days.
Blood sampling was performed one day, six days, 13 days, 20 days, 27 days, 34 days, and 42 days after the initiation of ingestion of the capsules to obtain the plasma. The plasma astaxanthin level was measured by using the method in [5-4] in Study 1 with HPLC.

[4] = Adverse events in Study 1; assay type: in vivo, human
[5] = previously: 12 mg/day of astaxanthin and 40 mg/day of tocotrienol for eight weeks; cited from earlier work
[6] = as high as that of vitamin E; cited from earlier work
[7] = 2 capsules/day (12 mg/day free form) for 42 days (FIG. 20)
[8] = throughout the study period, 12 mg/day

CC1=C(/C=C/C(C)=C/C=C/C(C)=C/C=C/C=C(C)/C=C/C=C(C)/C=C/C2=C(C)C(=O)C(O)CC2(C)C)C(C)(C)CC(O)C1=O (stereo not drawn) [astaxanthin, 3,3′-dihydroxy-β,β-carotene-4,4′-dione]
salivary cortisol concentration after vs before mental load application ([1]; after 4-week ingestion (FIG. 7)): significantly lower
salivary cortisol concentration ([1]; after mental load application): 0.38 ± 0.03 µg/dL
salivary cortisol concentration ([1]; before mental load application): 0.44 ± 0.03 µg/dL
cycling distance ([2]; after 4-week ingestion): no significant difference
cycling distance ([2]; after 8-week ingestion): no significant difference
human blood (plasma) astaxanthin level at plateau [3, 7]: approximately 200 ng/mL
time after initiation of ingestion at which plasma astaxanthin level plateaued [3, 7]: about six
human blood (plasma) astaxanthin level during continued ingestion ([3]; as long as ingestion of astaxanthin-containing food was continued): not lowered
adverse event ([4]; this study): no adverse event was found
adverse subjective symptoms [4, 8]: none of the subjects complained
medical examination by a physician [4, 8]: no remarkable abnormalities
adverse event [5]: No adverse event
antioxidative effect relative to vitamin E [6]: 1000 times
